The target in one assay is hA2a (Homo sapiens (Human), UniProt P29274). The experiment in a line: cAMP inhibition assay in hA2a/CHO cells. Particulars: 10 μM adenosine, read-out: cAMP & FLIPR IC50 (nM) hA2a. Type of assay: cell-based. How it is done:
(§1) hA2a/CHO, hA2b/CHO and mA2a/CHO(Genscript) were plated at 5×10^3 cells/well into 384-well polystyrene plates at the day of experiment. Compounds were pre-incubated with cells for 30 min at 37° C., 5% CO2. Then 10 μM adenosine was added to the cells and incubated for 30 min at 37° C., 5% CO2. Detection reagent (CISBIO) was added and the plates were incubated for 60 min at room temperature. The signal was captured by Envision.
FLIPR™ and cAMP inhibition activities of exemplary compounds in different adenosine receptor over-expressing cell lines are shown in Table 4 below.

For another assay, the target named is mA2a (Mus musculus (Mouse), UniProt Q60613). Put plainly: cAMP inhibition assay in mA2a/CHO cells. Type of assay: cell-based. Particulars: 10 μM adenosine, read-out: cAMP & FLIPR IC50 (nM) mA2a. How it is done:
as §1

hA2a, sequence (P29274 whole entry): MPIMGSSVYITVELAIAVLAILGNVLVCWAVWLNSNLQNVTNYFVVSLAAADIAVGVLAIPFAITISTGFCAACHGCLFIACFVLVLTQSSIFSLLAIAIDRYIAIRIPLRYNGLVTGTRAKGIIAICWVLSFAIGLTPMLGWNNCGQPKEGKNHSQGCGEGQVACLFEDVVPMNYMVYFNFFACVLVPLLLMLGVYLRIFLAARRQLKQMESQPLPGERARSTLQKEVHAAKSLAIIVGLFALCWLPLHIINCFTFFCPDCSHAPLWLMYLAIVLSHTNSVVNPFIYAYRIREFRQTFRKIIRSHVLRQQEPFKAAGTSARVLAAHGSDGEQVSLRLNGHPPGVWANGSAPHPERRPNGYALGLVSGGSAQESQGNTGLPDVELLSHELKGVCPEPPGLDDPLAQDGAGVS
mA2a, sequence (Q60613 whole entry): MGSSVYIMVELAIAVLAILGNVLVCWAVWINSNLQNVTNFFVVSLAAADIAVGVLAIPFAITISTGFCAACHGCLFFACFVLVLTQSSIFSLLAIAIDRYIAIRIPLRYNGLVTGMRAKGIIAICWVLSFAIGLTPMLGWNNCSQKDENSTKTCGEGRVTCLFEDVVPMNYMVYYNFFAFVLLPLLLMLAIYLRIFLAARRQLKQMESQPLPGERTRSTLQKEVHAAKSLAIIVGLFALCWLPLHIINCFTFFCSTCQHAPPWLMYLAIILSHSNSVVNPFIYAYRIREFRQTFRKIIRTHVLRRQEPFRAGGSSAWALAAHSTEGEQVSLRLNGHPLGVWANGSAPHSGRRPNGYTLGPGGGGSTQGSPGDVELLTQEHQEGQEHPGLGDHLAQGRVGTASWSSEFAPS

With `Cc1cnc2ccc(-c3c(-c4ccc(F)cc4)nc(N)n4nc(CC5CCOC5)nc34)cn12` (single isomer, unassigned; isomer 2) [Example 105-2, 7-(4-fluorophenyl)-8-(3-methylimidazo[1,2-a]pyridin-6-yl)-2-((tetrahydrofuran-3-yl)methyl)-[1,2,4]triazolo[1,5-c]pyrimidin-5-amine (isomer 2)], the IC50 (usually the concentration needed to halve the response being measured) on hA2a came out at 0.1 nM; on mA2a, 1 nM.

(Values after US11629147B2, “Triazolo-pyrimidine compounds and uses thereof” (Dizal (Jiangsu) Pharmaceutical Co., Ltd., priority 2019, dated 2023).)
